Assay results published in PMC11859928, “Design, Synthesis, and Antiproliferative Activity of Novel Indole/1,2,4-Triazole Hybrids as Tubulin Polymerization Inhibitors” (Pharmaceuticals, 2025).
Read-outs that look alike come from different tables or passages of the source.

Key:
HS 578T = assay: NCI five-dose assay; format: cell-based, human; details: Breast cancer
A549/ATCC = assay: NCI five-dose assay; format: cell-based, human; details: Non-small cell lung cancer
[1] = test system: panel of 60 human tumor cell lines; assay: NCI five-dose assay, full panel; format: cell-based
COLO205 = assay: NCI five-dose assay; format: cell-based, human; details: COLO205, Colon cancer
NCI-H226 = assay: NCI five-dose assay; format: cell-based, human; details: NCI-H226, Non-small cell lung cancer
tubulin = molecular target: T1, tubulin (Sus scrofa, UniProt P02550+P02554); assay: Tubulin polymerization inhibitory assay; format: biochemical
T1 construct: purchased Cytoskeleton Inc., Denver, CO, USA
T1 sequence (P02554 whole entry): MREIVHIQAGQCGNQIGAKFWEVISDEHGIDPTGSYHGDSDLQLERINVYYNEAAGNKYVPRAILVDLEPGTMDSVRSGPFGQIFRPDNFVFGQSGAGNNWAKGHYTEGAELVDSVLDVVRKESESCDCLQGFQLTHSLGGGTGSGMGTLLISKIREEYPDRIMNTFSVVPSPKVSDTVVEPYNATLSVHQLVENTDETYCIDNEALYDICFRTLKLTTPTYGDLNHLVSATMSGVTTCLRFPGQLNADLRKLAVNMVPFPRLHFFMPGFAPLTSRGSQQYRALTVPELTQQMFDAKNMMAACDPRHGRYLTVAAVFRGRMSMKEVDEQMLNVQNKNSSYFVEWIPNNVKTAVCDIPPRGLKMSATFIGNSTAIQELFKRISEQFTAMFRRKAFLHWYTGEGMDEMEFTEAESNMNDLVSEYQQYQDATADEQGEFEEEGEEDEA
T1 sequence (P02550 whole entry): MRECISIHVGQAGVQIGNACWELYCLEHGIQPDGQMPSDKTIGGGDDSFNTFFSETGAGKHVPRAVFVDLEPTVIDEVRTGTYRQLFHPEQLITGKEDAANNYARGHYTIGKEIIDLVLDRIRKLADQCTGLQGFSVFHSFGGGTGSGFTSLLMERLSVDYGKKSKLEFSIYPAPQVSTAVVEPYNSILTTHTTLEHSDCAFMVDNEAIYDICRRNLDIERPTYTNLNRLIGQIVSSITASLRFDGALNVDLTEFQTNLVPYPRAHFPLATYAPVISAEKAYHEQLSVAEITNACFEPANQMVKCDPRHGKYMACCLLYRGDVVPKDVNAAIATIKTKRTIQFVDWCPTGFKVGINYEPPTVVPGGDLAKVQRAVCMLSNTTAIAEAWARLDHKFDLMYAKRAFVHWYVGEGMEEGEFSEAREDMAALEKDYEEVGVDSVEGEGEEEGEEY
In short: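 Compound effects on tubulin polymerization were measured with the Tubulin Polymerization Assay Kit (Cytoskeleton Inc., Denver, CO, USA), run as the supplier instructs, which detects polymerization through enhancement of a fluorescent reporter. Docetaxel served as the stabilizing control and vincristine as the destabilizing control, each at 3 µM in PBS.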

SNB-19 = assay: NCI five-dose assay; format: cell-based, human; details: SNB-19, CNS cancer
EKVX = assay: NCI five-dose assay; format: cell-based, human; details: Non-small cell lung cancer
HOP-62 = assay: NCI five-dose assay; format: cell-based, human; details: HOP-62, Non-small cell lung cancer
MDA-MB-435 = assay: NCI five-dose assay; format: cell-based, human; details: MDA-MB-435, Melanoma
KM12 = assay: NCI five-dose assay; format: cell-based, human; details: KM12, Colon cancer
U251 = assay: NCI five-dose assay; format: cell-based, human; details: Homo sapiens, U-251, U251, CNS cancer
NCI-H322M = assay: NCI five-dose assay; format: cell-based, human; details: Non-small cell lung cancer
MCF7 = assay: NCI five-dose assay; format: cell-based, human; details: MCF7, Breast cancer
SK-MEL-5 = assay: NCI five-dose assay; format: cell-based, human; details: SK-MEL-5, Melanoma
SF-295 = assay: NCI five-dose assay; format: cell-based, human; details: SF-295, CNS cancer
HT29 = assay: NCI five-dose assay; format: cell-based, human; details: HT29, Colon cancer
Colon cancer subpanel = assay: NCI five-dose assay, subpanel mean; format: cell-based, human
SK-MEL-28 = assay: NCI five-dose assay; format: cell-based, human; details: SK-MEL-28, Melanoma
T-47D = assay: NCI five-dose assay; format: cell-based, human; details: Breast cancer
A498 = assay: NCI five-dose assay; format: cell-based, human; details: A498, Renal cancer
Prostate cancer subpanel = assay: NCI five-dose assay, subpanel mean; format: cell-based, human
Ovarian cancer subpanel = assay: NCI five-dose assay, subpanel mean; format: cell-based, human
IGROV1 = assay: NCI five-dose assay; format: cell-based, human; details: IGROV1, Ovarian cancer
OVCAR-8 = assay: NCI five-dose assay; format: cell-based, human; details: OVCAR-8, Ovarian cancer
[2] = Homo sapiens, read-out: GI50 Conc. per Cell Lines
[3] = Homo sapiens, 48 h, read-out: LC50 (the source's name)

## O/N=C(\CSc1nnc(-c2c[nH]c3ccccc23)n1-c1ccccc1)c1ccc(Br)cc1 [Compound 7i, (Z)-2-((5-(1H-Indol-3-yl)-4-phenyl-4H-1,2,4-triazol-3-yl)thio)-1-(4-bromophenyl) Ethanone Oxime]
HS 578T
  TGI Conc. per Cell Lines: 11.90 µM
HS 578T; Homo sapiens, 48 h
  LC50: > 100 µM
HS 578T; [2]
  GI50: 2.84 µM
A549/ATCC; [3]
  CC50: 31 µM
A549/ATCC; [2]
  GI50: 2.49 µM
A549/ATCC
  TGI Conc. per Cell Lines: 6.66 µM
[1]; average sensitivity of all cell lines, read-out: GI50 MID a
  GI50: 2.8 µM
[1]; most of the tested cell lines across nine subpanels, read-out: GI50 values, range across nine subpanels
  GI50: 2.1 to 3.23 µM
COLO205
  TGI Conc. per Cell Lines: 16.60 µM
COLO205; Homo sapiens, COLO 205, 48 h, read-out: LC50 (the source's name)
  CC50: > 100 µM
COLO205; Homo sapiens, COLO 205, read-out: GI50 Conc. per Cell Lines
  GI50: 3.8 µM
NCI-H226; [3]
  CC50: 51.4 µM
NCI-H226; [2]
  GI50: 3.33 µM
NCI-H226
  TGI Conc. per Cell Lines: 14.90 µM
tubulin; conc 0.01 (unit not given; IC50 from this curve in µg/ml)
  %inhibition: 6.76%
tubulin; conc 0.1 (unit not given; IC50 from this curve in µg/ml)
  %inhibition: 21%
tubulin; conc 1 (unit not given; IC50 from this curve in µg/ml)
  %inhibition: 47.4%
tubulin; conc 10 (unit not given; IC50 from this curve in µg/ml)
  %inhibition: 68.5%
tubulin; conc 100 (unit not given; IC50 from this curve in µg/ml)
  %inhibition: 87%
tubulin; read-out: Tub. IC50±SD (converted)
  IC50: 3.03 µM
tubulin; read-out: Tubulin Inhibitory Effect, IC50
  IC50: 3.03 ± 0.11 µM
SNB-19; [3]
  CC50: 84.5 µM
SNB-19; [2]
  GI50: 4.32 µM
SNB-19
  TGI Conc. per Cell Lines: 19.80 µM
EKVX; [3]
  CC50: 34.2 µM
EKVX; [2]
  GI50: 2.6 µM
EKVX
  TGI Conc. per Cell Lines: 9.09 µM
HOP-62
  TGI Conc. per Cell Lines: 3.98 µM
HOP-62; [2]
  GI50: 1.86 µM
MDA-MB-435; [3]
  CC50: 7.57 µM
MDA-MB-435; [2]
  GI50: 2.01 µM
MDA-MB-435
  TGI Conc. per Cell Lines: 3.89 µM
KM12; [3]
  CC50: > 100 µM
KM12; [2]
  GI50: 4.15 µM
KM12
  TGI Conc. per Cell Lines: 29.20 µM
U251; 48 h, read-out: LC50 (the source's name)
  CC50: 51.2 µM
U251; read-out: GI50 Conc. per Cell Lines
  GI50: 4.38 µM
NCI-H322M; [3]
  CC50: 93.3 µM
NCI-H322M; [2]
  GI50: 4.8 µM
NCI-H322M
  TGI Conc. per Cell Lines: 24.20 µM
MCF7; Homo sapiens, 48 h
  LC50: 63.6 µM
MCF7; [2]
  GI50: 3.49 µM
MCF7
  TGI Conc. per Cell Lines: 15.3 µM
SK-MEL-5; [3]
  CC50: 35.8 µM
SK-MEL-5; [2]
  GI50: 3.55 µM
SK-MEL-5
  TGI Conc. per Cell Lines: 12.80 µM
SF-295; [3]
  CC50: 13.6 µM
SF-295; [2]
  GI50: 1.93 µM
SF-295
  TGI Conc. per Cell Lines: 4.70 µM
HT29
  TGI Conc. per Cell Lines: 5.03 µM
HT29; Homo sapiens, HT-29, 48 h, read-out: LC50 (the source's name)
  CC50: 17.8 µM
HT29; Homo sapiens, HT-29, read-out: GI50 Conc. per Cell Lines
  GI50: 2.23 µM
Colon cancer subpanel; Colon cancer subpanel
  GI50 Selectivity Ratio (MID a/MID b): 0.88
Colon cancer subpanel; Homo sapiens, average sensitivity of all cell lines of the Colon cancer subpanel, read-out: GI50 Subpanel MID b
  GI50: 3.19 µM
SK-MEL-28; [3]
  CC50: 44.8 µM
SK-MEL-28; [2]
  GI50: 3.4 µM
SK-MEL-28
  TGI Conc. per Cell Lines: 12.50 µM
T-47D
  TGI Conc. per Cell Lines: 17.20 µM
T-47D; Homo sapiens, T47D, 48 h
  LC50 (concentration killing 50% of cells): > 100 µM
T-47D; Homo sapiens, T47D, read-out: GI50 Conc. per Cell Lines
  GI50: 3.51 µM
A498
  TGI Conc. per Cell Lines: 51.70 µM
A498; Homo sapiens, 48 h
  LC50: > 100 µM
A498; [2]
  GI50: 1.63 µM
Prostate cancer subpanel; Homo sapiens, average sensitivity of all cell lines of the Prostate cancer subpanel, read-out: GI50 Subpanel MID b
  GI50: 2.1 µM
Prostate cancer subpanel; Prostate cancer subpanel
  GI50 Selectivity Ratio (MID a/MID b): 1.33
Ovarian cancer subpanel; Homo sapiens, average sensitivity of all cell lines of the Ovarian cancer subpanel, read-out: GI50 Subpanel MID b
  GI50: 2.79 µM
Ovarian cancer subpanel; Ovarian cancer subpanel
  GI50 Selectivity Ratio (MID a/MID b): 1.00
IGROV1; Homo sapiens, IGROV-1, 48 h, read-out: LC50 (the source's name)
  CC50: 38.3 µM
IGROV1; Homo sapiens, IGROV-1, read-out: GI50 Conc. per Cell Lines
  GI50: 3.41 µM
IGROV1
  TGI Conc. per Cell Lines: 11.70 µM
OVCAR-8; [3]
  CC50: > 100 µM
OVCAR-8; [2]
  GI50: 2.45 µM
OVCAR-8
  TGI Conc. per Cell Lines: 6.50 µM
